Data from US20240148821A1, “PHARMACEUTICAL USE OF CYCLIC PEPTIDE COMPOUND” (CHUGAI SEIYAKU KABUSHIKI KAISHA, priority 2021, published 2024).
Bridge positions count the residues as written; N and C are the ends. Square brackets hold non-standard residues; d marks the D form. Peptide text beside a SMILES is read from it. * marks the point of attachment. hPhe(3,5-F2-4-CF3) = N[C@@H](CCc1cc(F)c(C(F)(F)F)c(F)c1)C(=O)O; hPhe(3-Cl-4-CF3) = N[C@@H](CCc1ccc(C(F)(F)F)c(Cl)c1)C(=O)O; NMePhe(4-CF3) = CN[C@@H](Cc1ccc(C(F)(F)F)cc1)C(=O)O; Piperazinyl(4-(3-oxetanyl)) = C1OCC1N1CCN(*)CC1; Phe(2-F,5-Br) = N[C@@H](Cc1cc(Br)ccc1F)C(=O)O; 3Oxa8azabicyclo(3.2.1)octane = C1CC2COCC1N2*; NMeAbu(4,4,4-F3) = CN[C@@H](CC(F)(F)F)C(=O)O; NMePhe(4-Me) = CN[C@@H](Cc1ccc(C)cc1)C(=O)O; Phe(2,6-F2) = N[C@@H](Cc1c(F)cccc1F)C(=O)O; NMeAla(cPent) = CN[C@@H](CC1CCCC1)C(=O)O; NMeGly(cPent) = CN[C@H](C(=O)O)C1CCCC1; Phe(3-I) = N[C@@H](Cc1cccc(I)c1)C(=O)O; Pro(4,4-F2) = O=C(O)[C@@H]1CC(F)(F)CN1; NMeY = CN[C@@H](Cc1ccc(O)cc1)C(=O)O; NMeCha = CN[C@@H](CC1CCCCC1)C(=O)O; Hyp = O=C(O)[C@@H]1C[C@@H](O)CN1; NEtLeu = CCN[C@@H](CC(C)C)C(=O)O; NMeChg = CN[C@H](C(=O)O)C1CCCCC1; NMeI = CC[C@H](C)[C@H](NC)C(=O)O; NMeD = CN[C@@H](CC(=O)O)C(=O)O; NMeL = CN[C@@H](CC(C)C)C(=O)O; d(β3hP) = O=C(O)C[C@H]1CCCN1; NMeNva = CCC[C@H](NC)C(=O)O; NMeAbu = CC[C@H](NC)C(=O)O; Morpholide = C1CN(*)CCO1; NMeA = CN[C@@H](C)C(=O)O; NMeAib = CNC(C)(C)C(=O)O; Nle = CCCC[C@H](N)C(=O)O; Piperidide = C1CCN(*)CC1; Pra = C#CC[C@H](N)C(=O)O; Pyrrolidide = C1CCN(*)C1; Ac5c = NC1(C(=O)O)CCCC1; Aze = O=C(O)[C@@H]1CCN1; Ac4c = NC1(C(=O)O)CCC1; Sar = CNCC(=O)O

System: Human pancreatic cancer cell line AsPC-1 (G12D mutation Kras)
Assay: AsPC-1 cell growth inhibition (AsPC-1 CGI)
Type: cell-based
Details: read-out: AsPC-1 cell growth inhibition, 50% growth inhibitory concentration (IC50 value); 96 hours, CellTiter-Glo, values classified in ranges
Procedure: Test compounds were serially dilated with dimethyl sulfoxide, and 200 nL was then dispensed to a U-bottom 96-well plate using Labcyte Echo. […] The cell suspension was dispensed to a. plate containing a test compound at 100 μL per well and incubated at 37° C. in a 5% carbon dioxide gas incubator. 96 hours later, 80 μL of CellTiter-Glo (Promega) was added to each well and fluorescence was measured.

SMILES	IC50 [µM]
CC[C@H](C)[C@@H]1NC(=O)[C@H](CC(C)C)N(C)C(=O)C[C@@H](C(=O)N2CCCCC2)N(C)C(=O)[C@H](C2CCCCC2)N(C)C(=O)[C@@H](C(C)C)NC(=O)[C@@H]2CCCN2C(=O)[C@H](CCc2ccc(C(F)(F)F)c(Cl)c2)NC(=O)CN(C)C(=O)[C@H](CC2CCCCC2)N(C)C(=O)CN(C)C(=O)CN(C)C1=O [Compound 1138] ([NMeL]I[Sar][Sar][NMeCha][Sar][hPhe(3-Cl-4-CF3)]P[dV][NMeChg][NMeD]-Piperidide; lactam N-11)	> 0.5
CCO[C@@H]1C[C@H]2C(=O)NC3(CCCC3)C(=O)N(C)[C@@H](C3CCCCC3)C(=O)N(C)[C@H](C(=O)N3CCCC3)CC(=O)N(C)[C@@H](CC(F)(F)F)C(=O)N[C@@H]([C@@H](C)CC)C(=O)N(C)CC(=O)N(C)CC(=O)N(C)[C@@H](Cc3ccc(C(F)(F)F)cc3)C(=O)N(C)CC(=O)N[C@@H](CCc3ccc(C(F)(F)F)c(Cl)c3)C(=O)N2C1 [Compound 1139] ([NMeAbu(4,4,4-F3)]I[Sar][Sar][NMePhe(4-CF3)][Sar][hPhe(3-Cl-4-CF3)][Hyp](Et)[Ac5c][NMeChg][NMeD]-Pyrrolidide; lactam N-11)	≤ 0.02
CC[C@H](C)[C@@H]1NC(=O)[C@H](CC2CCCC2)N(C)C(=O)C[C@@H](C(=O)N(C)C)N(C)C(=O)[C@H]([C@@H](C)CC)N(C)C(=O)C2(CCCC2)NC(=O)[C@@H]2CCCN2C(=O)[C@H](CCc2ccc(C(F)(F)F)c(Cl)c2)NC(=O)CN(C)C(=O)[C@H](Cc2ccc(C)cc2)N(C)C(=O)[C@@H]2CCN2C(=O)[C@H](C)NC1=O [Compound 1141] ([NMeAla(cPent)]IA[Aze][NMePhe(4-Me)][Sar][hPhe(3-Cl-4-CF3)]P[Ac5c][NMeI][NMeD]-NMe2; lactam N-11)	≤ 0.02
CC[C@H](C)[C@@H]1NC(=O)[C@H](CC(C)C)N(CC)C(=O)C[C@@H](C(=O)N(C)C)N(C)C(=O)[C@H](C2CCCC2)N(C)C(=O)C2(CCCC2)NC(=O)[C@@H]2CCCN2C(=O)[C@H](CCc2ccc(C(F)(F)F)c(Cl)c2)NC(=O)CN(C)C(=O)[C@H](Cc2ccc(C)cc2)N(C)C(=O)[C@@H]2CCN2C(=O)[C@H](C)N(C)C1=O [Compound 1148] ([NEtLeu]I[NMeA][Aze][NMePhe(4-Me)][Sar][hPhe(3-Cl-4-CF3)]P[Ac5c][NMeGly(cPent)][NMeD]-NMe2; lactam N-11)	≤ 0.02
CC[C@H](C)[C@@H]1NC(=O)[C@H](CC(C)C)N(C)C(=O)C[C@@H](C(=O)N2CCCCC2)N(C)C(=O)[C@H](C2CCCCC2)N(C)C(=O)[C@H](C(C)C)NC(=O)[C@@H]2CCCN2C(=O)[C@H](CCc2ccc(C(F)(F)F)c(Cl)c2)NC(=O)CN(C)C(=O)[C@H](CC2CCCCC2)N(C)C(=O)CN(C)C(=O)CN(C)C1=O [Compound 1157] ([NMeL]I[Sar][Sar][NMeCha][Sar][hPhe(3-Cl-4-CF3)]PV[NMeChg][NMeD]-Piperidide; lactam N-11)	> 0.5
CCC[C@H]1C(=O)N[C@@H]([C@@H](C)CC)C(=O)N(C)CC(=O)N(C)CC(=O)N(C)[C@@H](CC2CCCCC2)C(=O)N(C)CC(=O)N[C@@H](CCc2cc(F)c(C(F)(F)F)c(F)c2)C(=O)N2CC(F)(F)C[C@H]2C(=O)NC2(CCCC2)C(=O)N(C)[C@@H](C2CCCCC2)C(=O)N(C)[C@H](C(=O)N2CCCC2)CC(=O)N1C [Compound 1160] ([NMeNva]I[Sar][Sar][NMeCha][Sar][hPhe(3,5-F2-4-CF3)][Pro(4,4-F2)][Ac5c][NMeChg][NMeD]-Pyrrolidide; lactam N-11)	≤ 0.02
CC[C@H](C)[C@@H]1NC(=O)[C@H](CC(C)C)N(C)C(=O)C[C@@H](C(=O)N2CCCC2)N(C)C(=O)[C@H](C2CCCCC2)N(C)C(=O)C2(CCC2)NC(=O)[C@@H]2CC(F)(F)CN2C(=O)[C@H](CCc2ccc(C(F)(F)F)c(Cl)c2)NC(=O)CN(C)C(=O)[C@H](CC2CCCCC2)N(C)C(=O)CN(C)C(=O)CN(C)C1=O [Compound 1163] ([NMeL]I[Sar][Sar][NMeCha][Sar][hPhe(3-Cl-4-CF3)][Pro(4,4-F2)][Ac4c][NMeChg][NMeD]-Pyrrolidide; lactam N-11)	≤ 0.02
CC[C@H](C)[C@@H]1NC(=O)[C@H](CC(C)C)N(C)C(=O)C[C@@H](C(=O)N2CCCC2)N(C)C(=O)[C@H](C2CCCCC2)N(C)C(=O)C2(CCC2)NC(=O)[C@@H]2CCCN2C(=O)[C@H](CCc2cc(F)c(C(F)(F)F)c(F)c2)NC(=O)CN(C)C(=O)[C@H](CC2CCCCC2)N(C)C(=O)CN(C)C(=O)CN(C)C1=O [Compound 1165] ([NMeL]I[Sar][Sar][NMeCha][Sar][hPhe(3,5-F2-4-CF3)]P[Ac4c][NMeChg][NMeD]-Pyrrolidide; lactam N-11)	≤ 0.02
CC[C@H](C)[C@@H]1NC(=O)[C@H](CC(C)C)N(C)C(=O)C[C@@H](C(=O)N2CCCC2)N(C)C(=O)[C@H](C2CCCC2)N(C)C(=O)C2(CCCC2)NC(=O)[C@@H]2CC(F)(F)CN2C(=O)[C@H](CCc2cc(F)c(C(F)(F)F)c(F)c2)NC(=O)CN(C)C(=O)[C@H](CC2CCCCC2)N(C)C(=O)CN(C)C(=O)CN(C)C1=O [Compound 1166] ([NMeL]I[Sar][Sar][NMeCha][Sar][hPhe(3,5-F2-4-CF3)][Pro(4,4-F2)][Ac5c][NMeGly(cPent)][NMeD]-Pyrrolidide; lactam N-11)	≤ 0.02
C#CC[C@@H]1NC(=O)[C@H](Cc2cccc(I)c2)NC(=O)CN(C)C(=O)[C@H](Cc2ccc(OC)cc2)N(C)C(=O)CN(C)C(=O)CN(C)C(=O)[C@H]([C@@H](C)CC)NC(=O)[C@H](CC(C)C)N(C)C(=O)C[C@@H](C(=O)N2CCCCC2)N(C)C(=O)[C@H](CC(C)C)NC(=O)C(C)(C)N(C)C1=O [Compound 1169] ([NMeL]I[Sar][Sar][NMeY](Me)[Sar][Phe(3-I)][Pra][NMeAib]L[NMeD]-Piperidide; lactam N-11)	> 0.5
CCCC[C@@H]1NC(=O)[C@H](Cc2cc(Br)ccc2F)NC(=O)CN(C)C(=O)[C@H](Cc2ccc(OC)cc2)N(C)C(=O)[C@@H]2CCN2C(=O)[C@H](C)N(C)C(=O)[C@H]([C@@H](C)CC)NC(=O)[C@H](CC)N(C)C(=O)C[C@@H](C(=O)N2CCCCC2)N(C)C(=O)[C@H](CC(C)C)NC(=O)C(C)(C)N(C)C1=O [Compound 1177] ([NMeAbu]I[NMeA][Aze][NMeY](Me)[Sar][Phe(2-F,5-Br)][Nle][NMeAib]L[NMeD]-Piperidide; lactam N-11)	> 0.5
CC[C@H](C)[C@@H]1NC(=O)[C@H](CC(C)C)N(C)C(=O)C[C@@H](C(=O)N2C3CCC2COC3)N(C)C(=O)[C@H](C2CCCCC2)N(C)C(=O)C2(CCCC2)NC(=O)[C@@H]2CC(F)(F)CN2C(=O)[C@H](CCc2ccc(C(F)(F)F)c(Cl)c2)NC(=O)CN(C)C(=O)[C@H](CC2CCCCC2)N(C)C(=O)CN(C)C(=O)CN(C)C1=O [Compound 1179] ([NMeL]I[Sar][Sar][NMeCha][Sar][hPhe(3-Cl-4-CF3)][Pro(4,4-F2)][Ac5c][NMeChg][NMeD]-{3Oxa8azabicyclo(3.2.1)octane}; lactam N-11)	≤ 0.02
CC[C@H](C)[C@@H]1NC(=O)[C@H](CC(F)(F)F)N(C)C(=O)C[C@@H](C(=O)N2CCOCC2)N(C)C(=O)[C@H](C2CCCCC2)N(C)C(=O)C2(CCCC2)NC(=O)[C@@H]2CC(F)(F)CN2C(=O)[C@H](CCc2ccc(C(F)(F)F)c(Cl)c2)NC(=O)CN(C)C(=O)[C@H](Cc2ccc(C(F)(F)F)cc2)N(C)C(=O)CN(C)C(=O)CN(C)C1=O [Compound 1182] ([NMeAbu(4,4,4-F3)]I[Sar][Sar][NMePhe(4-CF3)][Sar][hPhe(3-Cl-4-CF3)][Pro(4,4-F2)][Ac5c][NMeChg][NMeD]-Morpholide; lactam N-11)	≤ 0.02
CC[C@H](C)[C@@H]1NC(=O)[C@H](CC2CCCC2)N(C)C(=O)C[C@@H](C(=O)N2CCCC2)N(C)C(=O)[C@H]([C@@H](C)CC)N(C)C(=O)C2(CCCC2)NC(=O)[C@@H]2CCCN2C(=O)[C@H](CCc2ccc(C(F)(F)F)c(Cl)c2)NC(=O)CN(C)C(=O)[C@H](Cc2ccc(C(F)(F)F)cc2)N(C)C(=O)[C@@H]2CCN2C(=O)[C@H](C)N(C)C1=O [Compound 1183] ([NMeAla(cPent)]I[NMeA][Aze][NMePhe(4-CF3)][Sar][hPhe(3-Cl-4-CF3)]P[Ac5c][NMeI][NMeD]-Pyrrolidide; lactam N-11)	≤ 0.02
CC[C@H](C)[C@@H]1NC(=O)[C@H](CC(C)C)N(C)C(=O)C[C@H]2CCCN2C(=O)[C@H](C2CCCCC2)N(C)C(=O)C2(CCCC2)NC(=O)[C@@H]2CCCN2C(=O)[C@H](CCc2ccc(C(F)(F)F)c(Cl)c2)NC(=O)CN(C)C(=O)[C@H](CC2CCCCC2)N(C)C(=O)CN(C)C(=O)CN(C)C1=O [Compound 1185] (cyclo([Ac5c][NMeChg][d(β3hP)][NMeL]I[Sar][Sar][NMeCha][Sar][hPhe(3-Cl-4-CF3)]P))	> 0.5
CC[C@H](C)[C@@H]1NC(=O)[C@H](CC(C)C)N(C)C(=O)C[C@@H](C(=O)N2CCCCC2)N(C)C(=O)[C@H](C2CCCCC2)N(C)C(=O)C2(CCCC2)NC(=O)[C@@H]2CCCN2C(=O)[C@H](CCc2ccc(C(F)(F)F)c(Cl)c2)NC(=O)CN(C)C(=O)[C@H](CC2CCCCC2)N(C)C(=O)[C@H](C)N(C)C(=O)CN(C)C1=O [Compound 1186] ([NMeL]I[Sar][NMeA][NMeCha][Sar][hPhe(3-Cl-4-CF3)]P[Ac5c][NMeChg][NMeD]-Piperidide; lactam N-11)	> 0.5
CCCC[C@@H]1NC(=O)[C@H](Cc2c(F)cccc2F)NC(=O)CN(C)C(=O)[C@H](Cc2ccc(OC)cc2)N(C)C(=O)[C@@H]2CCN2C(=O)[C@H](C)N(C)C(=O)[C@H]([C@@H](C)CC)NC(=O)[C@H](CC)N(C)C(=O)C[C@@H](C(=O)N2CCCCC2)N(C)C(=O)[C@H](CC(C)C)NC(=O)C(C)(C)N(C)C1=O [Compound 1187] ([NMeAbu]I[NMeA][Aze][NMeY](Me)[Sar][Phe(2,6-F2)][Nle][NMeAib]L[NMeD]-Piperidide; lactam N-11)	> 0.5
CC[C@H](C)[C@@H]1NC(=O)[C@H](CC(C)C)N(C)C(=O)C[C@@H](C(=O)N2CCN(C3COC3)CC2)NC(=O)[C@H]([C@@H](C)CC)N(C)C(=O)C2(CCCC2)NC(=O)[C@@H]2CCCN2C(=O)[C@H](CCc2ccc(C(F)(F)F)c(Cl)c2)NC(=O)CN(C)C(=O)[C@H](CC2CCCCC2)N(C)C(=O)CN(C)C(=O)CN(C)C1=O [Compound 1191] ([NMeL]I[Sar][Sar][NMeCha][Sar][hPhe(3-Cl-4-CF3)]P[Ac5c][NMeI]D-{Piperazinyl(4-(3-oxetanyl))}; lactam N-11)	> 0.5
